Experimental data published in ChEMBL document CHEMBL1139158, “Prenyloxyphenylpropanoids as novel lead compounds for the selective inhibition of geranylgeranyl transferase I” (Bioorg Med Chem Lett, 2007).
pIC50: −log10 of the molar value.

Columns and labels:
[1] = species on record: Homo sapiens; assay: Inhibition of GGTase 1 at 100 uM
[2] = Inhibition of GGTase 1; design: species or system Homo sapiens
[3] = system: Protein farnesyltransferase (Homo sapiens); assay: Inhibition of FTase at 100 uM

Q: For COc1cc(/C=C/C(=O)O)ccc1OC/C=C(\C)CC/C=C(\C)CCC=C(C)C, which inhibition [1] is on record?
A: Its inhibition is 83.9%.

Q: And the pIC50 [2]?
A: The pIC50 was 4.18.

Q: And the inhibition [3]?
A: The inhibition was 11%.

Q: With COc1cc(/C=C/C(=O)O)ccc1OCC=C(C)C as the compound, how does the inhibition [1] read?
A: Its inhibition is 31%.

Q: And the inhibition [3]?
A: The inhibition was 9.3%.

Q: Which results are given for COc1c(OC/C=C(\C)CCC=C(C)C)ccc2ccc(=O)oc12?
A: inhibition [1]: 34.2%; inhibition [3]: 15.5%

Q: What does the source list for CCOC(=O)/C=C/c1ccc(OC/C=C(\C)CCC=C(C)C)c(OC)c1?
A: inhibition [1]: 3%; inhibition [3]: 5.5%

Q: Which inhibition [1] does the source give for CC(C)=CCC/C(C)=C/COc1ccc(C(=O)O)cc1 here?
A: The inhibition was 0%.

Q: Which results are given for CC(C)=CCC/C(C)=C/CC/C(C)=C/COc1ccc(/C=C/C(=O)O)cc1?
A: inhibition [1]: 93.5%; pIC50 [2]: 4.55

Q: What does the source list for COc1cc(C(=O)O)ccc1OCC=C(C)C?
A: inhibition [1]: 0%; inhibition [3]: 2.4%

Q: For COc1cc(C(=O)O)ccc1OC/C=C(\C)CCC=C(C)C, which inhibition [1] is on record?
A: The inhibition was 0%.

Q: And the inhibition [3]?
A: The inhibition was 0%.
